The data set is described as follows: Hydrophilic drug release from drug-containing IPN hydrogel in sustained-release solution (HPLC, 272 nm). Type of data set: physicochemical. To be noted: from release curve FIG. 4; drug-loaded IPN hydrogel; sampling 30 minutes to 72 hours.

Procedure: The drug-containing hydrogel was placed in a sustained-release solution for drug release testing and taking the samples from sustained-release solution within a fixed time.
Taking the samples with fixed time and test releasing concentration. The sampling time is 30 minutes, 60 minutes, 90 minutes, 180 minutes, 8 hours, 24 hours, 48 hours, and 72 hours.
The subsequent drug concentration was analyzed by high performance liquid chromatography (HPLC). The water-based drug used caffeine for drug release, and the absorption wavelength of caffeine was 272 nm for measurement.

Consider `Cn1c(=O)c2c(ncn2C)n(C)c1=O` [caffeine], for which the “release amount of caffeine in water” value is given as at least 40%.

Source of the values: patent publication US20210130549A1, “IPN hydrogel for preparation and application” (EASTING BIOTECHNOLOGY COMPANY LIMITED, priority 2019, published 2021).
